Test results: US20060167020A1, “Pyrazolopyrimidines as kinase inhibitors” (priority 2002, published 2006)
Where a name gives a salt, the structure may show the parent alone.

The compounds below were run against GSK-3β (Homo sapiens, UniProt P49841) (assay: GSK3 kinase scintillation proximity assay (phosphorylation of biotinylated glycogen synthase peptide)). Settings: 20 nM kinase, 2.5 uM ATP, 2.8 uM peptide substrate, 40 minutes at room temperature; pIC50 = -log IC50 in Molar.
Format: biochemical
Text: The phosphorylated biotinylated peptide is then captured onto streptavidin coated scintillation proximity assay (SPA) beads from Amersham Technology, where the signal from the ^33P is amplified via the scintillant contained in the beads.
GSK-3β is commercially available or may be cloned and expressed in E coli using standard techniques to produce soluble, active protein. The production of active protein involves purification in two steps using Metal Chelate and Ion Exchange Chromatography. Protein eluting from Ion Exchange provides >90% pure product that may then be concentrated for use in high throughput screening.
The kinase was assayed at a concentration of 20 nM final in 100 mM HEPES, pH 7.2 containing 10 mM magnesium chloride, 0.1 mg/mL bovine serum albumin, 1 mM dithiothreitol, 0.3 mg/mL heparin, 2.8 uM peptide substrate, 2.5 uM ATP, and 0.2 uCi/well γ^33P]-ATP. After 40 minutes incubation at room temperature, the reaction was stopped by addition of 100 mM EDTA and […] in 100 mM HEPES, pH7.2 followed by an additional solution of diluted Streptavidin coated SPA beads in PBS, pH 7.2 to give a final concentration of 0.25 mg of beads per assay well in a 96-well microtiter plate.
10 mM stock solutions of the compounds of the invention in 100% DMSO are generated as a first step in the screening process. The second step involves the creation of dose response plates where these compounds are diluted 10-fold in 100% DMSO to 1 mM concentrations and subsequently serially diluted 3-fold in 100% DMSO across the plate by automated liquid handling such that the final top concentration of inhibitor is 0.033 mM in the 30 uL kinase assay. The third step involves the creation of the assay plates. This is achieved by transferring 1 uL of the compounds to assay plates by automated liquid handling. The fourth step is to perform the assay as described and count the resulting plates in the Packard TopCount NXT microplate scintillation and luminescence counter.
The final step is data acquisition and analysis where IC50 values are generated for each compound by normalizing curve data to the equation 100*(U1−C2)/(C1−C2) (where U1 is the cpm value, C2 is the background, and C1 is the maximum number of counts), then fitting the normalized data to the equation y=Vmax*(1−(x/(K+x))). The IC50 values were converted to pIC50 values, i.e., −log IC50 in Molar concentration. The data is expressed below in Table 1.

Chain of GSK-3β (P49841 whole entry, species assumed): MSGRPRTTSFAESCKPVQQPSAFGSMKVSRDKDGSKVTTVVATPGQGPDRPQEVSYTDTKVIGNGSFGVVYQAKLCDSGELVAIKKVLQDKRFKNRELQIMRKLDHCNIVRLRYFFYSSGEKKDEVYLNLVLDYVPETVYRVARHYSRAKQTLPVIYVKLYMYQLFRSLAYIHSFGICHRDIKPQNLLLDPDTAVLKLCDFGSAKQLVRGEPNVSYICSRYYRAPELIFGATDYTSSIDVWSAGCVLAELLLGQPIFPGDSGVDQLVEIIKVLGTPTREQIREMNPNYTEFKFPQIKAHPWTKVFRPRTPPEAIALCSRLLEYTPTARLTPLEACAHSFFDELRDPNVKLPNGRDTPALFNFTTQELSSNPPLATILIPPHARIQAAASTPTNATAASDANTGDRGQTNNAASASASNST

SMILES	IC50 [nM]
Nc1ccc(/C=N/Nc2ncnc3c2cnn3-c2ccccn2)cn1 [Example 17, 6-Aminonicotinaldehyde (1-pyridin-2-yl-1H-pyrazolo[3,4-d]pyrimidin-4-yl)hydrazone trifluoroacetate]	1000 to 10000
CN(C)CCNC(=O)c1ccc(/C=N/Nc2ncnc3c2cnn3-c2ccccn2)cc1 [Example 21, N-[2-(Dimethylamino)ethyl]-4-{(E)-[(1-pyridin-2-yl-1H-pyrazolo[3,4-d]pyrimidin-4-yl)hydrazono]methyl}benzamide hydrochloride]	100 to 1000
O=C(O)c1ccc(/C=N/Nc2ncnc3c2cnn3-c2ccccn2)cc1 [Example 20, 4-{(E)-[(1-pyridin-2-yl-1H-pyrazolo[3,4-d]pyrimidin-4-yl)hydrazono]methyl}benzoic acid]	1000 to 10000
C(=N\Nc1ncnc2c1cnn2-c1ccccn1)/c1cccnc1 [Example 13, Nicotinaldehyde (1-pyridin-2-yl-1H-pyrazolo[3,4-d]pyrimidin-4-yl)hydrazone]	100 to 1000
CN(C)CCNS(=O)(=O)c1ccc(/C=N/Nc2ncnc3c2cnn3-c2ccccn2)cc1 [Example 19, N-[2-(Dimethylamino)ethyl]-4-{(E)-[(1-pyridin-2-yl-1H-pyrazolo[3,4-d]pyrimidin-4-yl)hydrazono]methyl}benzenesulfonamide]	100 to 1000
COc1cccc(-n2ncc3c(N/N=C/c4ccnc(Cl)c4)ncnc32)n1 [Example 4, 2-Chloroisonicotin aldehyde [1-(6-methoxypyridin-2-yl)-1H-pyrazolo[3,4-d]pyrimidin-4-yl]hydrazone]	100 to 1000
COc1cccc(-n2ncc3c(N/N=C/c4ccc(N(C)C)nc4)ncnc32)n1 [Example 3, 6-(Dimethylamino)nicotinaldehyde [1-(6-methoxypyridin-2-yl)-1H-pyrazolo[3,4-d]pyrimidin-4-yl]hydrazone]	100 to 1000
C(=N\Nc1ncnc2c1cnn2-c1ccccn1)/c1ccncc1 [Example 14, Isonicotinaldehyde (1-pyridin-2-yl-1H-pyrazolo[3,4-d]pyrimidin-4-yl)hydrazone]	1000 to 10000
CN(C)c1ccc(/C=N/Nc2ncnc3c2cnn3-c2ccccn2)cn1 [Example 18, 6-(Dimethylamino)nicotinaldehyde (1-pyridin-2-yl-1H-pyrazolo[3,4-d]pyrimidin-4-yl)hydrazone]	1000 to 10000
COc1cccc(-n2ncc3c(N/N=C/c4ccc(C(=O)O)cc4)ncnc32)n1 [Example 8]	100 to 1000
CS(=O)(=O)CCNC(=O)c1ccc(/C=N/Nc2ncnc3c2cnn3-c2ccccn2)cc1 [Example 22, N-[2-(Methylsulfonyl)ethyl]-4-{(E)-[(1-pyridin-2-yl-1H-pyrazolo[3,4-d]pyrimidin-4-yl)hydrazono]methyl}benzamide]	100 to 1000
C(=NNc1ncnc2c1cnn2-c1nccs1)c1cccnc1 [Example 23, Nicotinaldehyde [1-(1,3-thiazol-2-yl)-1H-pyrazolo[3,4-d]pyrimidin-4-yl]hydrazone]	100 to 1000
CC(C)(C)OC(=O)N1CCC(/C=N/Nc2ncnc3c2cnn3-c2ccccn2)CC1 [Example 15, tert-Butyl 4-{(E)-[(1-pyridin-2-yl-1H-pyrazolo[3,4-d]pyrimidin-4-yl)hydrazono]methyl}piperidine-1-carboxylate]	1000 to 10000
COc1cccc(-n2ncc3c(N/N=C/c4ccc(C(=O)NCCN(C)C)cc4)ncnc32)n1 [Example 10, N[2-(Dimethylamino)ethyl]-4-((E)-{[1-(6-methoxypyridin-2-yl)-1H-pyrazolo[3,4-d]pyrimidin-4-yl]hydrazono}methyl)benzamide]	< 100

Now from value to compound:

IC50 [nM]	SMILES
< 100	COc1cccc(-n2ncc3c(N/N=C/c4ccncc4)ncnc32)n1 [Example 1, Isonicotinaldehyde [1-(6-methoxypyridin-2-yl)-1H-pyrazolo[3,4-d]pyrimidin-4-yl]hydrazone]
< 100	COc1cccc(-n2ncc3c(N/N=C/c4cccnc4)ncnc32)n1 [Example 2, Nicotinaldehyde [1-(6-methoxypyridin-2-yl)-1H-pyrazolo[3,4-d]pyrimidin-4-yl]hydrazone]
< 100	Fc1ccc(/C=N/Nc2ncnc3c2cnn3-c2cccc3[nH]cnc23)cc1 [Example 29, 4-Fluorobenzaldehyde [1-(1H-benzimidazol-4-yl)-1H-pyrazolo[3,4-d]pyrimidin-4-yl]hydrazone]
< 100	COc1cccc(-n2ncc3c(N/N=C/c4ccc(C(=O)NCCS(C)(=O)=O)cc4)ncnc32)n1 [Example 9, 4-((E)-{[1-(6-methoxypyridin-2-yl)-1H-pyrazolo[3,4-d]pyrimidin-4-yl]hydrazono}methyl)-N-[2-(methylsulfonyl)ethyl]benzamide]
< 100	Fc1ccc(/C=N/Nc2ncnc3c2cnn3-c2cccnc2)cc1 [Example 33, 4-Fluorobenzaldehyde (1-pyridin-3-yl-1H-pyrazolo[3,4-d]pyrimidin-4-yl)hydrazone]
< 100	C(=N\Nc1ncnc2c1cnn2-c1ccncc1)/c1ccncc1 [Example 26, Isonicotinaldehyde (1-pyridin-4-yl-1H-pyrazolo[3,4-d]pyrimidin-4-yl)hydrazone]
< 100	O=C(O)c1ccc(/C=N/Nc2ncnc3c2cnn3-c2cccc3[nH]cnc23)cc1 [Example 31, 4-((E)-{[1-(1H-benzimidazol-4-yl)-1H-pyrazolo[3,4-d]pyrimidin-4-yl]hydrazono}methyl)benzoic acid]
< 100	COc1cccc(-n2ncc3c(N/N=C/c4ccc(C(=O)NCCCN5CCCC5)cc4)ncnc32)n1 [Example 12, 4-((E)-{[1-(6-methoxypyridin-2-yl)-1H-pyrazolo[3,4-d]pyrimidin-4-yl]hydrazono}methyl)-N-(3-pyrrolidin-1-ylpropyl)benzamide]
< 100	C(=NNc1ncnc2c1cnn2-c1cccc2[nH]cnc12)c1ccncc1 [Example 28, Isonicotinaldehyde [1-(1H-benzimidazol-4-yl)-1H-pyrazolo[3,4-d]pyrimidin-4-yl]hydrazone]
< 100	CN(C)CCCNC(=O)c1ccc(/C=N/Nc2ncnc3c2cnn3-c2cccc3[nH]cnc23)cc1 [Example 32, 4-((E)-{[1-(1H-benzimidazol-4-yl)-1H-pyrazolo[3,4-d]pyrimidin-4-yl]hydrazono}methyl)-N-[3-(dimethylamino)propyl]benzamide]
< 100	CN(C)CCNS(=O)(=O)c1ccc(/C=N/Nc2ncnc3c2cnn3-c2nccs2)cc1 [Example 25, N-[2-(Dimethylamino)ethyl]-4-((E)-{[1-(1,3-thiazol-2-yl)-1H-pyrazolo[3,4-a]pyrimidin-4-yl]hydrazonol}methyl)benzenesulfonamide]
< 100	COc1cccc(-n2ncc3c(N/N=C/c4ccc(S(=O)(=O)NCCN5CCOCC5)cc4)ncnc32)n1 [Example 7, 4-((E)-{[1-(6-methoxypyridin-2-yl)-1H-pyrazolo[3,4-]pyrimidin-4-yl]hydrazono}methyl)-N-(2-morpholin-4-ylethyl)benzenesulfonamide]
< 100	C(=NNc1ncnc2c1cnn2-c1nccs1)c1ccncc1 [Example 24, Isonicotinaldehyde [1-(1,3-thiazol-2-yl)-1H-pyrazolo[3,4-d]pyrimidin-4-yl]hydrazone]
< 100	COc1cccc(-n2ncc3c(N/N=C/c4ccc(C(=O)NCCCN(C)C)cc4)ncnc32)n1 [Example 11, N-[3-(Dimethylamino)propyl]-4-((E)-{[1-(6-methoxypyridin-2-yl)-1H-pyrazolo[3,4-a]pyrimidin-4-yl]hydrazono}methyl)benzamide]
< 100	COc1cccc(-n2ncc3c(N/N=C/c4ccc(S(=O)(=O)NCCN(C)C)cc4)ncnc32)n1 [Example 6, N-[2-(Dimethylamino)ethyl]-4-((E)-{[1-(6-methoxypyridin-2-yl)-1H-pyrazolo[3,4-d]pyrimidin-4-yl]hydrazono}methyl)benzenesulfonamide]
< 100	COc1cccc(-n2ncc3c(N/N=C/c4ccc(Cl)nc4)ncnc32)n1 [Example 5, 6-Chloronicotinaldehyde [1-(6-methoxypyridin-2-yl)-1H-pyrazolo[3,4-d]pyrimidin-4-yl]hydrazone]
< 100	CS(=O)(=O)c1ccc(/C=N/Nc2ncnc3c2cnn3-c2cccc3[nH]cnc23)cc1 [Example 30, 4-(Methylsulfonyl)benzaldehyde [1-(1H-benzimidazol-4-yl)-1H-pyrazolo[3,4-d]pyrimidin-4-yl]hydrazone]
